Data: US20240158446A1, “CYCLIC COMPOUND HAVING SELECTIVE INHIBITORY ACTION ON KRAS OVER HRAS AND NRAS” (CHUGAI SEIYAKU KABUSHIKI KAISHA, priority 2021, published 2024)
Where a SMILES comes first, the peptide text is derived from it. Bridges are numbered along the chain shown (N, C = ends). [ ]: non-standard residue; d: D form. hPhe(3-Cl-4-CF3) = N[C@@H](CCc1ccc(C(F)(F)F)c(Cl)c1)C(=O)O; NPrPhe(4-CF3) = CCCN[C@@H](Cc1ccc(C(F)(F)F)cc1)C(=O)O; NMeNva(3-Et) = CCC(CC)[C@H](NC)C(=O)O; NMeD = CN[C@@H](CC(=O)O)C(=O)O; NMeL = CN[C@@H](CC(C)C)C(=O)O; Ac4c = NC1(C(=O)O)CCC1; Sar = CNCC(=O)O

What was measured:
[1] = biological target: GDP-bound KRAS wild-type protein (Homo sapiens, UniProt P01116); assay: Binding to KRAS by surface plasmon resonance (SPR), Single Cycle Kinetics; conditions: SPR, Single Cycle Kinetics, GDP-bound KRAS wild-type protein; read-out: KRAS KD
Sequence of GDP-bound KRAS wild-type protein (P01116 whole entry): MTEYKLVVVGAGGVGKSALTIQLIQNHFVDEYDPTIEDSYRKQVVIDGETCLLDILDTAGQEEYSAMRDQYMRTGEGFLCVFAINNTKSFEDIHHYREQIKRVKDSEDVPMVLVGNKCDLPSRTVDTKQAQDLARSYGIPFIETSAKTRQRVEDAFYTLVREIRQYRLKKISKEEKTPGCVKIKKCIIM

[2] = biological target: GDP-bound NRAS wild-type protein (Homo sapiens, UniProt P01111); assay: Binding to NRAS by surface plasmon resonance (SPR), Single Cycle Kinetics; conditions: ratio of KD for GDP-bound NRAS wild-type protein to KD for KRAS, SPR
Sequence of GDP-bound NRAS wild-type protein (P01111 whole entry): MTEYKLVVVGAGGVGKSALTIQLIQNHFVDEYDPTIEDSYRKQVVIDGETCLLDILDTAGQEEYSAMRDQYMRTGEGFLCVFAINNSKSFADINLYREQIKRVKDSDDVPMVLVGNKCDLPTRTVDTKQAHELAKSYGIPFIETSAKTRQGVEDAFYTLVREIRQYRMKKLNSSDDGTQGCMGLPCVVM

[3] = biological target: GDP-bound HRAS wild-type protein (Homo sapiens, UniProt P01112); assay: Binding to HRAS by surface plasmon resonance (SPR), Single Cycle Kinetics; conditions: ratio of KD for GDP-bound HRAS wild-type protein to KD for KRAS, SPR
Sequence of GDP-bound HRAS wild-type protein (P01112 whole entry): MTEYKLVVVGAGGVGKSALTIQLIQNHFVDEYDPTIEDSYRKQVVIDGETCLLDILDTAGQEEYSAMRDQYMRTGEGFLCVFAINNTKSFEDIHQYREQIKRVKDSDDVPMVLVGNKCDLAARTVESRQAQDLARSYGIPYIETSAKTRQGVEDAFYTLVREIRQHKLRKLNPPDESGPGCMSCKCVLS

[4] = test system: human lung cancer strain NCI-H441; assay: cells; conditions: NCI-H441, 96 h, read-out: NCI-H441 IC50 (nM), NCI-H441 cell proliferation, 4 days, CellTiter-Glo;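 also: cell proliferation inhibition after four days measured by CellTiter-Glo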

Structure (SMILES) | Kd [1] [nM] | NRAS/KRAS (KD ratio) [2] | HRAS/KRAS (KD ratio) [3] | IC50 [4] [nM]
CCCN1C(=O)CN(C)C(=O)CN(C)C(=O)[C@H]([C@@H](C)CC)NC(=O)[C@H](CC(C)C)N(C)C(=O)C[C@@H](C(=O)N(C)C)N(C)C(=O)[C@H](C(CC)CC)N(C)C(=O)C2(CCC2)NC(=O)[C@@H]2CCCN2C(=O)[C@H](CCc2ccc(C(F)(F)F)c(Cl)c2)NC(=O)CN(C)C(=O)[C@@H]1Cc1ccc(C(F)(F)F)cc1 [PP1960] ([NMeL]I[Sar][Sar][NPrPhe(4-CF3)][Sar][hPhe(3-Cl-4-CF3)]P[Ac4c][NMeNva(3-Et)][NMeD]-NMe2; lactam N-11) | 0.17 | B (a compound having 3 or more and less than 10 is denoted as B) | C (A compound having a KD ratio of 0.1 or more and less than 3 is denoted as C) | 6
CCO[C@@H]1C[C@H]2C(=O)NC3(CC(C)(C)C3)C(=O)N(C)[C@@H](C3CCCC3)C(=O)N(C)[C@H](C(=O)N(C)C)CC(=O)N(C)[C@@H](CC(C)C)C(=O)N[C@@H]([C@@H](C)CC)C(=O)N(C)CC(=O)N(C)[C@H]3C/C=C\CCN(C3=O)[C@@H](Cc3ccc(C(F)(F)F)cc3)C(=O)N(C)CC(=O)N[C@@H](CCc3cc(F)c(Cl)c(F)c3)C(=O)N2C1 [PP1761] | 0.17 | A (a compound having 10 or more and less than 20 is denoted as A) | A (a compound having 10 or more and less than 20 is denoted as A) | 5.2
CCC[C@H]1C(=O)N[C@@H]([C@@H](C)CC)C(=O)N[C@@H](C)C(=O)N(C)[C@H]2C/C=C\CCN(C2=O)[C@@H](Cc2ccc(C(F)(F)F)cc2)C(=O)N(C)CC(=O)N[C@@H](CCc2cc(F)c(C(F)(F)F)c(F)c2)C(=O)N2C[C@H](OCC)C[C@H]2C(=O)NC2(CC(C)(C)C2)C(=O)N(C)[C@@H](C2CCCC2)C(=O)N(C)[C@H](C(=O)N(C)C)CC(=O)N1C [PP1927] | 0.85 | A (a compound having 10 or more and less than 20 is denoted as A) | A (a compound having 10 or more and less than 20 is denoted as A) | 23.5
CC[C@H](C)[C@@H]1NC(=O)[C@H](CC)N(C)C(=O)C[C@@H](C(=O)N(CC)CC)N(C)C(=O)[C@H](C2CCCC2)N(C)C(=O)C2(CC(C)(C)C2)NC(=O)[C@@H]2C[C@H](C)CN2C(=O)[C@H](CCc2ccc(C(F)(F)F)c(OC)c2)NC(=O)CN(C)C(=O)[C@H](Cc2ccc(C)cc2)N2CC/C=C\C[C@@H](C2=O)N(C)C(=O)CN(C)C1=O [PP1839] | 0.31 | A (a compound having 10 or more and less than 20 is denoted as A) | B (a compound having 3 or more and less than 10 is denoted as B) | 24.3
CCCOC[C@H]1C(=O)N[C@@H]([C@@H](C)CC)C(=O)N(C)CC(=O)N(C)[C@H]2C/C=C\CCN(C2=O)[C@@H](Cc2ccc(C(F)(F)F)cc2)C(=O)N(C)CC(=O)N[C@@H](CCc2cc(F)c(C(F)(F)F)c(F)c2)C(=O)N2C[C@H](OCC)C[C@H]2C(=O)NC2(CCC2)C(=O)N(C)[C@@H](C2CCCC2)C(=O)N(C)[C@H](C(=O)N(C)CCC)CC(=O)N1C [PP1668] | 0.13 | A (a compound having 10 or more and less than 20 is denoted as A) | A (a compound having 10 or more and less than 20 is denoted as A) | 5.3
CC[C@H](C)[C@@H]1NC(=O)[C@H](CC2CC2)N(C)C(=O)C[C@@H](C(=O)N(C)C)N(C)C(=O)[C@H](C2CCCC2)N(C)C(=O)C2(CC(C)(C)C2)NC(=O)[C@@H]2CC(F)(F)CN2C(=O)[C@H](CCc2cc(F)c(C(F)(F)F)c(F)c2)NC(=O)CN(C)C(=O)[C@H](Cc2ccc(C(F)(F)F)cc2)N2CC/C=C\C[C@@H](C2=O)N(C)C(=O)CN(C)C1=O [PP1713] | 0.096 | A (a compound having 10 or more and less than 20 is denoted as A) | A (a compound having 10 or more and less than 20 is denoted as A) | 7.9
CCO[C@@H]1C[C@H]2C(=O)NC3(CC(C)(C)C3)C(=O)N(C)[C@@H](C(CC)CC)C(=O)N(C)[C@H](C3CCC3)CC(=O)N(C)[C@@H](CC3CC3)C(=O)N[C@@H]([C@@H](C)CC)C(=O)N(C)CC(=O)N(C)[C@H]3C/C=C\CCN(C3=O)[C@@H](Cc3ccc(C(F)(F)F)cc3)C(=O)N(C)CC(=O)N[C@@H](CCc3cc(F)c(C(F)(F)F)c(F)c3)C(=O)N2C1 [PP1634] | 5.1 | A (a compound having 10 or more and less than 20 is denoted as A) | A (a compound having 10 or more and less than 20 is denoted as A) | 144
CC[C@H](C)[C@@H]1NC(=O)[C@H](CC2CC2)N(C)C(=O)C[C@@H](C(=O)N(C)C)N(C)C(=O)[C@H](C2CCCC2)N(C)C(=O)C2(CC(C)(C)C2)NC(=O)[C@@H]2C[C@H](C)CN2C(=O)[C@H](CCc2ccc(C(F)(F)F)c(OC)c2)NC(=O)CN(C)C(=O)[C@H](Cc2ccc(C)cc2)N2CC/C=C\C[C@@H](C2=O)N(C)C(=O)CN(C)C1=O [PP1898] | 0.13 | B (a compound having 3 or more and less than 10 is denoted as B) | B (a compound having 3 or more and less than 10 is denoted as B) | 6.3
CC[C@H](C)[C@@H]1NC(=O)[C@H](CC2CCC2)N(C)C(=O)C[C@@H](C(=O)N(C)C)N(C)C(=O)[C@H](C2CCCC2)N(C)C(=O)C2(CC(C)(C)C2)NC(=O)[C@@H]2CC(F)(F)CN2C(=O)[C@H](CCc2cc(F)c(C(F)(F)F)c(F)c2)NC(=O)CN(C)C(=O)[C@H](Cc2ccc(C(F)(F)F)cc2)N2CC/C=C\C[C@@H](C2=O)N(C)C(=O)CN(C)C1=O [PP1716] | 0.099 | AA (a compound having 20 or more is denoted as AA) | A (a compound having 10 or more and less than 20 is denoted as A) | 3.8
CCC[C@H]1C(=O)N[C@@H]([C@@H](C)CC)C(=O)N(C)CC(=O)N(C)[C@H]2C/C=C\CCN(C2=O)[C@@H](Cc2ccc(C(F)(F)F)cc2)C(=O)N(C)CC(=O)N[C@@H](CCc2cc(F)c(C(F)(F)F)c(F)c2)C(=O)N(C)[C@@H](C)C(=O)NC2(CC(C)(C)C2)C(=O)N(C)[C@@H](C2CCCC2)C(=O)N(C)[C@H](C(=O)N(C)C)CC(=O)N1C [PP1934] | 0.72 | A (a compound having 10 or more and less than 20 is denoted as A) | A (a compound having 10 or more and less than 20 is denoted as A) | 68.5
CCC[C@H]1C(=O)N[C@@H]([C@@H](C)CC)C(=O)N2CC[C@H]2C(=O)N(C)[C@H]2C/C=C\CCN(C2=O)[C@@H](Cc2ccc(C(F)(F)F)cc2)C(=O)N(C)CC(=O)N[C@@H](CCc2cc(F)c(C(F)(F)F)c(F)c2)C(=O)N2C[C@H](OCC)C[C@H]2C(=O)NC2(CC(C)(C)C2)C(=O)N(C)[C@@H](C2CCCC2)C(=O)N(C)[C@H](C(=O)N(C)C)CC(=O)N1C [PP1925] | 0.23 | A (a compound having 10 or more and less than 20 is denoted as A) | A (a compound having 10 or more and less than 20 is denoted as A) | 9.7
CCCN(C)C(=O)[C@@H]1CC(=O)N(C)[C@@H](C)C(=O)N[C@@H]([C@@H](C)CC)C(=O)N(C)CC(=O)N(C)[C@H]2C/C=C\CCN(C2=O)[C@@H](Cc2ccc(C(F)(F)F)cc2)C(=O)N(C)CC(=O)N[C@@H](CCc2cc(F)c(C(F)(F)F)c(F)c2)C(=O)N2C[C@H](OCC)C[C@H]2C(=O)NC2(CCC2)C(=O)N(C)[C@@H](C2CCCC2)C(=O)N1C [PP1666] | 0.076 | A (a compound having 10 or more and less than 20 is denoted as A) | A (a compound having 10 or more and less than 20 is denoted as A) | 8.1
CCO[C@@H]1C[C@H]2C(=O)NC3(CCC3)C(=O)N(C)[C@@H](C3CCCC3)C(=O)N(C)[C@H](C(=O)N(C)C)CC(=O)N(CC)[C@@H](CC(C)C)C(=O)N[C@@H]([C@@H](C)CC)C(=O)N(C)CC(=O)N(C)[C@H]3C/C=C\CCN(C3=O)[C@@H](Cc3ccc(C(F)(F)F)cc3)C(=O)N(C)CC(=O)N[C@@H](CCc3cc(F)c(C(F)(F)F)c(F)c3)C(=O)N2C1 [PP1765] | 0.084 | A (a compound having 10 or more and less than 20 is denoted as A) | A (a compound having 10 or more and less than 20 is denoted as A) | 16.8
CC[C@H](C)[C@@H]1NC(=O)[C@H](CC)N(C)C(=O)C[C@@H](C(=O)N(C)C)N(C)C(=O)[C@H](C2CCCC2)N(C)C(=O)C2(CC(C)(C)C2)NC(=O)[C@H](CC)N(C)C(=O)[C@H](CCc2cc(F)c(C(F)(F)F)c(F)c2)NC(=O)CN(C)C(=O)[C@H](Cc2ccc(C(F)(F)F)cc2)N2CC/C=C\C[C@@H](C2=O)N(C)C(=O)CN(C)C1=O [PP1935] | 0.46 | A (a compound having 10 or more and less than 20 is denoted as A) | A (a compound having 10 or more and less than 20 is denoted as A) | 13.1
